This is an account of results in US8754257B2, “Pharmaceutical-grade ferric organic compounds, uses thereof and methods of making same” (GloboAsia, LLC, priority 2003, dated 2014).

Data set [1] is described as follows: Intrinsic dissolution rate of ferric citrate. It counts as physicochemical. As to conditions: for Intrinsic Dissolution Rates: 37° C., solutions of pH 8.
Description: The intrinsic dissolution rate is defined as the dissolution rate of pure substances under the condition of constant surface area. […] The measured intrinsic dissolution rate is dependent on these solid-state properties and is typically determined by exposing a constant surface area of a material to an appropriate dissolution medium while maintaining constant temperature, stirring rate, and pH.
A short description of data set [2]: BET active surface area measurement. Type of data set: physicochemical. As to conditions: for BET Active Surface Area: Table 2, one value per pair of samples -1/-2.
Protocol: The analysis of active surface area is based on BET theory which describes the phenomenon of mass and energy interaction and phase changes during as adsorption onto solid surfaces and in pore spaces. In BET active surface area measurement, the volume of a monolayer of gas is determined which allows the surface area of the sample to be determined using the area occupied by a single layer of adsorbed gas molecule.
In a further data set the test system is patients. The data set is described as follows: Clinical study of pharmaceutical-grade ferric citrate in patients in vivo. Further details: species or system human. The procedure: Ferric citrate is supplied in 500 mg capsules, whereas the placebo will be provided in identical-looking capsules (indistinguishable from those containing the active drug); the placebo capsules will contain sorbitol and colorant to match the powder color of the active capsules. The placebo capsule shells will be identical to the active capsule shells.
An non-limiting example of a dosing regimen is provided below. This is not meant to limit the invention as to how an effective amount of ferric citrate is selected, or the form in which it is provided or the frequency of administering the composition per day. The following merely illustrates how ferric citrate and placebo may be administered; e.g., as 500 mg capsules of identical appearance. All patients may receive (in a blinded fashion) 4 capsules with each of three meals, on a daily basis, for 28 days. Patients will be instructed to take the study medication within 10 minutes of finishing their meals (breakfast, lunch, and dinner).
• 4 placebo capsules, with breakfast. • 4 placebo capsules, with lunch. • 4 placebo capsules with dinner Ferric Citrate 2 g Per Day Arm of the Study • 1 ferric citrate capsule and 3 placebo capsules with breakfast • 1 ferric citrate capsule and 3 placebo capsules with lunch • 2 ferric citrate capsules and 2 placebo capsules with dinner Ferric Citrate 4 g Per Day Arm • 2 ferric citrate capsules and 2 placebo capsules with breakfast • 3 ferric citrate capsule and 1 placebo capsule with lunch • 3 ferric citrate capsules and 1 placebo capsule with dinner Ferric Citrate 6 g Per Day Arm • 4 ferric citrate capsules with breakfast • 4 ferric citrate capsules with lunch • 4 ferric citrate capsules with dinner B. Clinical Schedule and Assessments Duration of Study Treatment
Each patient's participation in the trial lasts for up to 8 weeks: the screening period (approximately 1-2 weeks), a 1-2 week washout, and 4 weeks of treatment with study medication.
The following procedures will be performed at the first screening visit: • 1. Medical history, including concomitant medications. • 2. Demographic data • 3. Physical examination, including height, weight, and vital signs. • 4. Dietary interview, using 24 hour recall method, to assess dietary intake of calcium and phosphorous, three times during screening period, to include one dialysis day, one non-dialysis day, and one weekend day. Note: Dietary interview may be also performed, in part or in whole, during the washout period. • 5. […]

For data set [3], the system named is patients with kidney disease. As to conditions: patients with kidney disease receiving doses of ferric citrate; cited from earlier work.
In data set [4] the test system is patients with End Stage Renal Disease (ESRD). The conditions noted are these: cited from earlier work.

Entries after “also recorded” stand apart in the source; their conditions may differ.

Take ferric citrate [PAN031203E]: the “Intrinsic Dissolution Rates” value in data set [1] was 3.13 mg/cm2/min.

Consider ferric citrate [PAN031203B], for which the “Intrinsic Dissolution Rates” value in data set [1] is reported as 4.00 mg/cm2/min. Still for that read-out and setting: for ferric citrate [PAN031203A] the value was 3.82 mg/cm2/min.

ferric citrate [STM-182-1]: the “BET Active Surface Area” value in data set [2] was found to be 19.85.

For ferric citrate [STM-134], the “Intrinsic Dissolution Rates” value in data set [1] is recorded as 1.88 mg/cm2/min. ferric citrate [STM-134-1]: the “BET Active Surface Area” value in data set [2] was found to be 16.17. Regarding ferric citrate [PAN031203C], the “Intrinsic Dissolution Rates” value in data set [1] worked out at 2.68 mg/cm2/min. Regarding “ferric citrate [ferric citrate of the present invention]”, the “dissolution rate compared with commercially available ferric citrate” value in data set [1] (experiment simulating the alkaline condition in the small intestine) is “better dissolution rate than the commercially available ferric citrate”. In data set [1] (pH 8.0), the “intrinsic dissolution rate relative to commercially available ferric citrate” value amounted to 3.08 times. In addition, the “BET active surface area relative to commercially available ferric citrate” value in data set [2] is “at least 16 times”. The “adverse side effects compared with placebo” value in the data set on patients (FIG. 12) is “not statistically different from chose associated with the placebo”. In addition, the “adverse side effects / safety profile compared with chemical grade ferric citrate” value is “less adverse clinical effects; also recorded: significantly more desirable safety profile” in the data set with patients (oral capsules, FIG. 12, listed as pharmaceutical grade ferric citrate) and “less adverse side effects than chemical grade ferric citrate” in the data set on patients (oral capsules, FIG. 12, listed as pharmaceutical-grade ferric citrate). In the data set on patients (oral capsules, FIG. 13, listed as pharmaceutical-grade ferric citrate), the “efficacy compared with chemical grade ferric citrate” value was “approximately equal so that of chemical grade ferric citrate”. On to ferric citrate [PAN031203D], for which the “Intrinsic Dissolution Rates” value in data set [1] worked out at 2.95 mg/cm2/min.

“ferric citrate [RFS-12-1, reference compound]”: the “BET Active Surface Area” value in data set [2] amounted to 0.61. In the case of ferric citrate, the “calcium deposits on the eye” value in data set [3] was “reversal of calcium deposits on the eye”. Moreover, in data set [4] (3 g daily), the GI symptoms entry is given as “mild, hut tolerable GI symptoms” and the “change in serum P04” value is given as “significant decrease in serum P04”. The “efficacy in reducing serum P04 compared with calcium carbonate (3 g daily)” value in data set [4] is recorded as “not as effective as calcium carbonate”.
